The values below come from patent publication US8450525B2, “Histone deacetylase inhibitors” (Orchid Chemicals & Pharmaceuticals Limited, priority 2007, dated 2013).

The subject of one test is HCT 116 (colon) cells. Put plainly: Anti-cancer screen, growth inhibition (MTT). Type of test: cell-based. As to conditions: Homo sapiens, HCT-116 cells, 48 hours of incubation. Summed up:
(§1)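 MTT added for 3 h at 37° C, formazan dissolved in DMSO and A570 read. A T0 plate was measured at compound addition.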

The next test concerns NCI-H460 (lung) cells. Put plainly: Anti-cancer screen, growth inhibition (MTT). Particulars: Homo sapiens, 48 hours of incubation. Type of test: cell-based. Put shortly:
as §1

The next test deals with U251 (glioma) cells. Description: Anti-cancer screen, growth inhibition (MTT). The format is cell-based. Particulars: Homo sapiens, U-251 cells, 48 hours of incubation. Summed up:
as §1

Test [1] concerns T1, HDAC (Mouse Liver Extract).
T1 construct: Mouse liver enzyme (10 mg/ml) was diluted 1:6 with HDAC buffer
Put plainly: HDAC inhibition assay using Boc-Lys(Ac)-AMC substrate, mouse liver enzyme.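 For IC50: IC50 for inhibition of HDAC activity in mouse liver extract.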 The format is biochemical.

Structures are written as SMILES. Bounds are passed on as bounds.

Usually GI50 stands for the concentration at which growth is held to half of that of the control. As to `CC(C)NC(=O)/C(=C/c1ccc(C(=O)Nc2ccccc2N)cc1)c1ccc(F)cc1` [Example 131, N-(2-Aminophenyl)-4-(2-(4-fluorophenyl)-3-(isopropylamino)-3-oxoprop-1-en-1-yl)benzamide], the GI50 in the test on HCT 116 (colon) cells is 4 µM; in the test with NCI-H460 (lung) cells, 18 µM; with U251 (glioma) cells, 19 µM. Moreover, the “HDAC Inhibition % (1 μM)” value in test [1] is reported as 28.6%. Further, in test [1], the “HDAC Inhibition % (10 μM)” value is 57.4%.

In the case of `Nc1ccc(-c2ccccc2)cc1NC(=O)c1ccc(/C=C(/C(=O)NC2CC2)c2ccc(F)cc2)cc1` [Example 132], the 50% growth inhibitory concentration (GI50) in the test with HCT 116 (colon) cells, in the test on NCI-H460 (lung) cells and in the test with U251 (glioma) cells was above 100 µM each time. Further, the “HDAC Inhibition % (1 μM)” value in test [1] worked out at 23.5%. The “HDAC Inhibition % (10 μM)” value in test [1] is given as 25.3%.

For `Cc1ccccc1/C(=C\c1ccc(C(=O)Nc2ccccc2N)cc1)C(=O)NC1CC1` [Example 133, N-(2-Aminophenyl)-4-(3-(cyclopropylamino)-2-(2-methylphenyl)-3-oxoprop-1-en-1-yl)benzamide], the GI50 came to 2.8 µM in the test with HCT 116 (colon) cells, 6.6 µM with NCI-H460 (lung) cells and 12 µM with U251 (glioma) cells. For the same compound, the “HDAC Inhibition % (1 μM)” value in test [1] came out at 39.6%. Also, in test [1], the “HDAC Inhibition % (10 μM)” value is 56.7%.

With `CNC(=O)/C(=C/c1ccc(C(=O)Nc2ccccc2N)cc1)c1ccc(F)cc1` [Example 134, N-(2-Aminophenyl)-4-(3-(methylamino)-2-(4-fluorophenyl)-3-oxoprop-1-en-1-yl)benzamide], the GI50 was determined as 6 µM with HCT 116 (colon) cells, 12 µM in the test on NCI-H460 (lung) cells and 7.5 µM with U251 (glioma) cells. Besides, the “HDAC Inhibition % (1 μM)” value in test [1] came out at 38.2%. Besides, the “HDAC Inhibition % (10 μM)” value in test [1] was 63.3%.

Consider `Nc1ccccc1NC(=O)c1ccc(/C=C(\C(=O)NC2CC2)c2ccc(F)cc2)cc1` [Example 135, (Z)—N-(2-Aminophenyl)-4-(2-(4-fluorophenyl)-3-(cyclopropylamino)-3-oxoprop-1-en-1-yl)benzamide], for which the GI50 came out at 6.8 µM in the test on HCT 116 (colon) cells, 76 µM in the test with NCI-H460 (lung) cells and 9.8 µM in the test on U251 (glioma) cells. In test [1], the “HDAC Inhibition % (1 μM)” value stood at 8.6%. Further, in test [1], the “HDAC Inhibition % (10 μM)” value is on record as 16.6%.

For `Nc1ccccc1NC(=O)c1ccc(/C=C(/C(=O)N2CCOCC2)c2ccc(F)cc2)cc1` [Example 136, N-(2-Aminophenyl)-4-[2-(4-fluorophenyl)-3-morpholin-4-yl-3-oxoprop-1-en-1-yl]benzamide], the GI50 in the test with HCT 116 (colon) cells worked out at 40 µM; with NCI-H460 (lung) cells, 80 µM; with U251 (glioma) cells, 21 µM. In test [1], the “HDAC Inhibition % (1 μM)” value worked out at 36.1%. For the same compound, in test [1], the “HDAC Inhibition % (10 μM)” value is 67.9%.

For the compound `Nc1ccccc1NC(=O)c1ccc(/C=C(/CNC2CC2)c2ccc(F)cc2)cc1` [Example 144, N-(2-Aminophenyl)-4-(3-(cyclopropylamino)-2-(4-fluorophenyl)prop-1-en-1-yl)benzamide], the GI50 was found to be 5.5 µM with HCT 116 (colon) cells, 10 µM in the test on NCI-H460 (lung) cells and 8 µM in the test with U251 (glioma) cells. Also, the “HDAC Inhibition % (1 μM)” value in test [1] came to 36.3%. In addition, in test [1], the “HDAC Inhibition % (10 μM)” value amounted to 62.3%.

For the compound `O=C(/C=C/c1ccc(CNC(=O)c2ccc(/C=C(/C(=O)NC3CC3)c3ccc4c(c3)OCO4)cc2)cc1)NO` [Example 147, 4-(3-(Cyclopropylamino)-2-[benzodioxol-5-yl]-3-oxoprop-1-en-1-yl)-N-(4-((E)-3-(hydroxyamino)-3-oxoprop-1-en-1-yl)benzyl)benzamide], the values for the GI50 in the test on HCT 116 (colon) cells, in the test with NCI-H460 (lung) cells and in the test with U251 (glioma) cells were 20 µM, 95 µM and 19 µM, respectively. Also, the “HDAC Inhibition % (1 μM)” value in test [1] stood at 94.6%. Moreover, in test [1], the “HDAC Inhibition % (10 μM)” value is listed as 100.0%.

By IC50 is commonly meant the concentration that inhibits the measured activity by half. As to `Cc1ccc(/C(=C\c2ccc(C(=O)NCc3ccc(C(=O)NO)cc3)cc2)C(=O)NC2CC2)cc1` [Example 148, 4-(3-(Cyclopropylamino)-2-(4-methylphenyl)-3-oxoprop-1-en-1-yl)-N-(4-(hydroxycarbamoyl)benzyl)benzamide], in the test with HCT 116 (colon) cells, the GI50 is 2 µM. The same compound came in with a GI50 in the test on NCI-H460 (lung) cells of 0.1 µM. Moreover, growth with U251 (glioma) cells was halved (GI50) at 0.08 µM. Further, in test [1], the half-maximal inhibitory concentration (IC50) amounted to 0.022 µM, the “HDAC Inhibition % (1 μM)” value was found to be 86.9% and the “HDAC Inhibition % (10 μM)” value came to 97.8%.

`O=C(NC1CC1)/C(=C/c1ccc(C(=O)NCc2ccc(C(=O)NO)cc2)cc1)c1ccccc1` [Example 149, 4-(3-(Cyclopropylamino)-2-phenyl-3-oxoprop-1-en-1-yl)-N-(4-(hydroxycarbamoyl)benzyl)benzamide]: the GI50 in the test on HCT 116 (colon) cells came to 12 µM; with NCI-H460 (lung) cells, 52 µM; in the test with U251 (glioma) cells, 12 µM. In test [1], the “HDAC Inhibition % (1 μM)” value is recorded as 61.7%. In addition, the “HDAC Inhibition % (10 μM)” value in test [1] turned out to be 88.0%.

As for `O=C(NC1CC1)/C(=C/c1ccc(C(=O)NCc2ccc(C(=O)NO)cc2)cc1)c1ccc(F)cc1` [Example 152, 4-(3-(Cyclopropylamino)-2-(4-fluorophenyl)-3-oxoprop-1-en-1-yl)-N-(4-(hydroxycarbamoyl)benzyl)benzamide], the values for the GI50 in the test on HCT 116 (colon) cells, in the test on NCI-H460 (lung) cells and with U251 (glioma) cells were 30 µM, 25 µM and 22 µM, respectively. In addition, in test [1], the “HDAC Inhibition % (1 μM)” value stood at 88.7%. The “HDAC Inhibition % (10 μM)” value in test [1] stood at 98.0%.

Regarding `O=C(NC1CC1)/C(=C/c1ccc(C(=O)NCc2ccc(C(=O)NO)cc2)cc1)c1cccc(Cl)c1` [Example 153, 4-(3-(Cyclopropylamino)-2-(3-chlorophenyl)-3-oxoprop-1-en-1-yl)-N-(4-(hydroxycarbamoyl)benzyl)benzamide], the GI50 with HCT 116 (colon) cells came to 10.2 µM; with NCI-H460 (lung) cells, 19 µM; with U251 (glioma) cells, 21 µM. Moreover, the “HDAC Inhibition % (1 μM)” value in test [1] came to 87.5%. Besides, the “HDAC Inhibition % (10 μM)” value in test [1] is recorded as 97.1%.

For `COc1ccc(/C(=C\c2ccc(C(=O)NCc3ccc(C(=O)NO)cc3)cc2)C(=O)NC2CC2)cc1` [Example 154, 4-(3-(Cyclopropylamino)-2-(4-methoxyphenyl)-3-oxoprop-1-en-1-yl)-N-(4-(hydroxycarbamoyl)benzyl)benzamide], the GI50 is 27 µM with HCT 116 (colon) cells, 33 µM in the test with NCI-H460 (lung) cells and 20 µM in the test with U251 (glioma) cells. In addition, the “HDAC Inhibition % (1 μM)” value in test [1] is 87.2%. Besides, in test [1], the “HDAC Inhibition % (10 μM)” value stood at 97.5%.

With `O=C(NC1CC1)/C(=C/c1ccc(C(=O)NCc2ccc(C(=O)NO)cc2)cc1)c1ccc(F)cc1Cl` [Example 155, 4-(3-(Cyclopropylamino)-2-(2-chloro-4-fluorophenyl)-3-oxoprop-1-en-1-yl)-N-(4-(hydroxycarbamoyl)benzyl)benzamide], the GI50 in the test on HCT 116 (colon) cells amounted to 30 µM; with NCI-H460 (lung) cells, 16 µM; in the test with U251 (glioma) cells, 26 µM. Besides, in test [1], the “HDAC Inhibition % (1 μM)” value stood at 88.8%. Moreover, the “HDAC Inhibition % (10 μM)” value in test [1] is recorded as 99.3%.

Consider `O=C(NC1CC1)/C(=C/c1ccc(C(=O)NCc2ccc(C(=O)NO)cc2)cc1)c1cccc(F)c1` [Example 156, 4-(3-(Cyclopropylamino)-2-(3-fluorophenyl)-3-oxoprop-1-en-1-yl)-N-(4-(hydroxycarbamoyl)benzyl)benzamide], for which the 50% growth inhibitory concentration (GI50) in the test on HCT 116 (colon) cells, in the test with NCI-H460 (lung) cells and in the test on U251 (glioma) cells was 26 µM each time. Further, the “HDAC Inhibition % (1 μM)” value in test [1] was 88.4%. Moreover, in test [1], the “HDAC Inhibition % (10 μM)” value is recorded as 98.1%.

Turning to `O=C(NC1CC1)/C(=C/c1ccc(C(=O)NCc2ccc(C(=O)NO)cc2)cc1)c1ccc2c(c1)OCO2` [Example 157, 4-(3-(Cyclopropylamino)-2-[benzodioxol-5-yl]-3-oxoprop-1-en-1-yl)-N-(4-(hydroxycarbamoyl)benzyl)benzamide], the GI50 amounted to 19 µM with HCT 116 (colon) cells, 18 µM in the test with NCI-H460 (lung) cells and 60 µM in the test on U251 (glioma) cells. The “HDAC Inhibition % (1 μM)” value in test [1] was 82.2%. Moreover, in test [1], the “HDAC Inhibition % (10 μM)” value is 96.6%.

As for `O=C(NC1CC1)/C(=C/c1ccc(C(=O)NCc2ccc(C(=O)NO)cc2)cc1)c1ccc(C(F)(F)F)cc1` [Example 158, 4-(3-(Cyclopropylamino)-2-(4-trifluoromethylphenyl)-3-oxoprop-1-en-1-yl)-N-(4-(hydroxycarbamoyl)benzyl)benzamide], the GI50 with HCT 116 (colon) cells is 30 µM; in the test on NCI-H460 (lung) cells, 25 µM; with U251 (glioma) cells, 22 µM. Also, the “HDAC Inhibition % (1 μM)” value in test [1] was found to be 88.7%. Besides, the “HDAC Inhibition % (10 μM)” value in test [1] is 98.0%.

Turning to `O=C(NC1CC1)/C(=C/c1ccc(C(=O)NCc2ccc(C(=O)NO)cc2)cc1)c1ccc(F)c(F)c1` [Example 159, 4-(3-(Cyclopropylamino)-2-(3,4-difluorophenyl)-3-oxoprop-1-en-1-yl)-N-(4-(hydroxycarbamoyl)benzyl)benzamide], the GI50 stood at 12 µM in the test with HCT 116 (colon) cells, 20 µM in the test with NCI-H460 (lung) cells and 11 µM in the test with U251 (glioma) cells. Moreover, in test [1], the “HDAC Inhibition % (1 μM)” value is reported as 89.3%. In test [1], the “HDAC Inhibition % (10 μM)” value came to 97.0%.

As for `O=C(CCCCCNC(=O)c1ccc(/C=C(/C(=O)NC2CC2)c2ccccc2)cc1)NO` [Example 161], the GI50 in the test with HCT 116 (colon) cells stood at 8.2 µM. The compound also registered a GI50 in the test on NCI-H460 (lung) cells of 5.3 µM. This compound displayed a GI50 in the test on U251 (glioma) cells of 3.2 µM. For the same compound, in test [1], the IC50 came to 0.006 µM, the “HDAC Inhibition % (1 μM)” value was 87.8% and the “HDAC Inhibition % (10 μM)” value turned out to be 97.5%.

For `Cc1ccc(/C(=C\c2ccc(C(=O)NCCCCCC(=O)NO)cc2)C(=O)NC2CC2)cc1` [Example 162, 4-(3-(Cyclopropylamino)-2-(4-methylphenyl)-3-oxoprop-1-en-1-yl)-N-(6-(hydroxyamino)-6-oxohexyl)benzamide], the 50% growth inhibitory concentration (GI50) in the test on HCT 116 (colon) cells was 19 µM; in the test on NCI-H460 (lung) cells, 46 µM; in the test with U251 (glioma) cells, 2 µM. Besides, in test [1], the “HDAC Inhibition % (1 μM)” value is recorded as 86.1%. Moreover, the “HDAC Inhibition % (10 μM)” value in test [1] is reported as 95.7%.

As for `O=C(CCCCCNC(=O)c1ccc(/C=C(/C(=O)NC2CC2)c2ccccc2F)cc1)NO` [Example 163, 4-(3-(Cyclopropylamino)-2-(2-fluorophenyl)-3-oxoprop-1-en-1-yl)-N-(6-(hydroxyamino)-6-oxohexyl)benzamide], the GI50 was 32 µM with HCT 116 (colon) cells, 10 µM with NCI-H460 (lung) cells and 41 µM in the test with U251 (glioma) cells. In addition, in test [1], the “HDAC Inhibition % (1 μM)” value was found to be 81.7%. Further, the “HDAC Inhibition % (10 μM)” value in test [1] came out at 97.7%.
